Drawing on US10906887B2, “Amino compounds for treatment of immune and inflammatory disorders” (Achillion Pharmaceuticals, Inc., priority 2015, dated 2021), this text covers IC50 for one compound.

Some results are limits rather than exact numbers.

The assay deals with T1, Human Factor D (Homo sapiens, UniProt P00746).
T1 construct: purified from human serum
The experiment in a line: Human Factor D Assay. The class given is biochemical. The settings on record: Human Factor D 80 nM, substrate Z-L-Lys-SBzl, assay of Example 12. On the procedure:
Human Factor D (purified from human serum, Complement Technology, Inc.) at 80 nM final concentration was incubated with test compound at various concentrations for 5 minutes at room temperature in 50 mM Tris, 1M NaCl, pH 7.5. A synthetic substrate Z-L-Lys-SBzl and DTNB (Ellman's reagent) are added to final concentrations of 100 μM each. Absorbance at 405 nm (A405) was recorded at 30 second intervals for 30 minutes using a microplate spectrophotometer. IC50 values are calculated by nonlinear regression of complement Factor D reaction rates as a function of test compound concentration.
The assay of Example 12 was used to determine the IC50's of the compounds. Other standard Factor D inhibition assays are also available.

T1 sequence (P00746 26-253): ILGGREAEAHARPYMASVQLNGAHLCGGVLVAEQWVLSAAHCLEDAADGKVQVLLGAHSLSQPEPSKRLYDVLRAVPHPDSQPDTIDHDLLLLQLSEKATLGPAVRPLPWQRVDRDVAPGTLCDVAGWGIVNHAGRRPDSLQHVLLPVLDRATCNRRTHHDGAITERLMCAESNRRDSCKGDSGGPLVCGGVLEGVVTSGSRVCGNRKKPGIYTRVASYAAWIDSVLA

Regarding `Cc1cccc(NC(=O)[C@@H]2CC=CCN2C(=O)Cn2cc(C(N)=O)c3cc(Nc4cccnn4)ccc32)n1` [compound 1, (S)-1-(2-(6-((6-methylpyridin-2-yl)carbamoyl)-5,6-dihydropyridin-1(2H)-yl)-2-oxoethyl)-5-(pyridazin-3-ylamino)-1H-indole-3-carboxamide], the IC50 is more than 10 µM.

Usually IC50 stands for the point on the concentration scale where inhibition reaches its midpoint. Lower therefore signals greater potency.
